Test results reported in US7728132B2, “Compositions for stabilizing chlorinated water to sunlight decomposition, and methods of preparation thereof” (Enviro Tech Chemical Services, Inc., priority 2007, dated 2010).

Experiments:
[1] = as reported for prior-art products; cited from earlier work
[2] = granules in pool water; cited from earlier work
[3] = Dispensing and dissolution of product in swimming pool; type: physicochemical; conditions: 5.85 lb dry solid in 20,000 gallon pool, recirculation pump running
Procedure: The gallon jugs of Examples 2 and 4 were taken to a residential swimming pool of 20,000 gallons estimated volume. The water temperature was 76° F. The sample of Example 2 was mildly shaken and then using a single motion, poured into the 8 foot deep end of the pool near the return pipe from the pump where the turbulence was high. […] Next the gallon jug of Example 4 was emptied into the pool in the same vicinity and same manner. […] The jug was rinsed clean with two aliquots of pool water.
Cyanuric acid wetcake (1405 lb) containing 66% solids is introduced to a 50 cubic foot stainless steel ribbon blender powered by dual 15 HP motors. Soft water (43.9 lb) is added while mixing in the blender. With further blending, solid sodium hydroxide microbeads (288.3 lb) are introduced over a three-minute period. The mixture becomes very hot as evidenced by the large amount of steam that escapes the reaction mixture into the atmosphere. The outside skin of the ribbon blender becomes too hot to touch and a temperature of 130° F. is measured with a digital infrared thermometer. […]
A one-gallon jug of Instant Pool Water Conditioner (Natural Chemistry Inc. of Norwalk, Conn.) was purchased from a local pool store. […] Using a pool brush, the undissolved material was readily dispersed and dissolved with a sweeping action. […]

Q: For `O=c1[n-]c(=O)[nH]c(=O)[nH]1.[Na+]` [monosodium cyanurate], which pH [1] is on record?
A: neutral

Q: For `O=c1[nH]c(=O)[nH]c(=O)[nH]1` [cyanuric acid], which time to dissolve [2] is on record?
A: several days

Q: With `O=c1[n-]c(=O)[nH]c(=O)[nH]1.[Na+]` [Prospective Example 8, monosodium cyanurate] as the compound, how does the “time until all is dissolved” value [3] read?
A: ≤ 30 min
